Test results published in publication PMC6199744, “Development of Chemical Proteomics for the Folateome and Analysis of the Kinetoplastid Folateome” (ACS Infectious Diseases, 2018).
Where two headings read alike, the source gives them in different places.

Experiments:
Format in all cases: binding
[1] = molecular target: T1, HeLa cell extract proteins (Homo sapiens, UniProt A5YKK6)
T1 construct: endogenous in cells; host or cells: HeLa cell extract

[2] = molecular target: T2, HeLa cell extract proteins (Homo sapiens, UniProt O43242)
T2 construct: endogenous in cells; host or cells: HeLa cell extract

[3] = molecular target: T3, HeLa cell extract proteins (Homo sapiens, UniProt P06703)
T3 construct: endogenous in cells; host or cells: HeLa cell extract

[4] = molecular target: T4, HeLa cell extract proteins (Homo sapiens, UniProt P16615)
T4 construct: endogenous in cells; host or cells: HeLa cell extract

[5] = molecular target: T5, HeLa cell extract proteins (Homo sapiens, UniProt P25787)
T5 construct: endogenous in cells; host or cells: HeLa cell extract
T5 sequence (P25787 1-234): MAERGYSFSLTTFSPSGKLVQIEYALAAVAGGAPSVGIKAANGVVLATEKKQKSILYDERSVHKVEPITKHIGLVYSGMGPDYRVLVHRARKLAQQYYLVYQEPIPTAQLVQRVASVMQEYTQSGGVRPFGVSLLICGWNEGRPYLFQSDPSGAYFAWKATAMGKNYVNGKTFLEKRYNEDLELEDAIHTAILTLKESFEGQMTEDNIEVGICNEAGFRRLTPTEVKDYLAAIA

[6] = molecular target: T6, HeLa cell extract proteins (Homo sapiens, UniProt P55060)
T6 construct: endogenous in cells; host or cells: HeLa cell extract
T6 sequence (P55060 1-971): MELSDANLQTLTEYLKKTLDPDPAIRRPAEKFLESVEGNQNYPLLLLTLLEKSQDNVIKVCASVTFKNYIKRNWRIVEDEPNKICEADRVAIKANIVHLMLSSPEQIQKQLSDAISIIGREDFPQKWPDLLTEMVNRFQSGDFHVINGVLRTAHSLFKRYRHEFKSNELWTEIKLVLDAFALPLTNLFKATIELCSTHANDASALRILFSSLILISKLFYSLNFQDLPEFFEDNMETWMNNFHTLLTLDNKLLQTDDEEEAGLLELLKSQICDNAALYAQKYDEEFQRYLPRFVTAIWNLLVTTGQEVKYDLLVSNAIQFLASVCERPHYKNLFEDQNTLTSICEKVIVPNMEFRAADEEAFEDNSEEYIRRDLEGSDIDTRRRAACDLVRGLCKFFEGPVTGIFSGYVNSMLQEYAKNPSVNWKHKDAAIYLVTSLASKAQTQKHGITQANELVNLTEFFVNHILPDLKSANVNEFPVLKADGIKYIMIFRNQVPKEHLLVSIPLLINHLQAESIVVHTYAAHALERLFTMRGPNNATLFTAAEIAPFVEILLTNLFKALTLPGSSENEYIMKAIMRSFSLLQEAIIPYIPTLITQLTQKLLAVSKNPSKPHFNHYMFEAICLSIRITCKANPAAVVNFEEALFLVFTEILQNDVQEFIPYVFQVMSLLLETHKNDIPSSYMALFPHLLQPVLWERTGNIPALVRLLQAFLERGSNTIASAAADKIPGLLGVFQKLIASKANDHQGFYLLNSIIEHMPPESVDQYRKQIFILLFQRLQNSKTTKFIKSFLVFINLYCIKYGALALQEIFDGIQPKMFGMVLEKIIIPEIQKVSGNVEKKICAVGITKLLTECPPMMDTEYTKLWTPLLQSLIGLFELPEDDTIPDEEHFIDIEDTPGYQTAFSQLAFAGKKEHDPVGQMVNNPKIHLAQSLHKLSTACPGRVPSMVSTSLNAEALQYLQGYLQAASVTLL

[7] = molecular target: T7, HeLa cell extract proteins (Homo sapiens, UniProt Q14CZ7)
T7 construct: endogenous in cells; host or cells: HeLa cell extract
T7 sequence (Q14CZ7 1-662): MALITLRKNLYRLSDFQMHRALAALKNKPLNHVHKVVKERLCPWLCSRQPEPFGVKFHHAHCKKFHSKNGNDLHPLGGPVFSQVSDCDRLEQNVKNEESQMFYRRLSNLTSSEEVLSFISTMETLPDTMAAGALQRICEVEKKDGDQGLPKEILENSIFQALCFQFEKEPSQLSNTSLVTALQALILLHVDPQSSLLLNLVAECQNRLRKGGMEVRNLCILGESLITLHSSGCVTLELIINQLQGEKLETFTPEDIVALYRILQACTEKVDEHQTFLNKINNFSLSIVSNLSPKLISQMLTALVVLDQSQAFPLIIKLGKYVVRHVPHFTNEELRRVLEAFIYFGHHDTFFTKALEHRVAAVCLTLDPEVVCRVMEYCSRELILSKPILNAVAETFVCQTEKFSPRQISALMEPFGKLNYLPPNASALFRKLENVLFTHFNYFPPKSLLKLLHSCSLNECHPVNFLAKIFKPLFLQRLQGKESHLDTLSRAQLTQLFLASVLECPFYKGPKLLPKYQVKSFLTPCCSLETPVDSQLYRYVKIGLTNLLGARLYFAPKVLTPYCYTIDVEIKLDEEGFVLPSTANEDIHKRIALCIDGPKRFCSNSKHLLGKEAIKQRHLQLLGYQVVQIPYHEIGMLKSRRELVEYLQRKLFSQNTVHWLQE

[8] = molecular target: T8, HeLa cell extract proteins (Homo sapiens, UniProt Q53G59)
T8 construct: endogenous in cells; host or cells: HeLa cell extract
T8 sequence (Q53G59 1-568): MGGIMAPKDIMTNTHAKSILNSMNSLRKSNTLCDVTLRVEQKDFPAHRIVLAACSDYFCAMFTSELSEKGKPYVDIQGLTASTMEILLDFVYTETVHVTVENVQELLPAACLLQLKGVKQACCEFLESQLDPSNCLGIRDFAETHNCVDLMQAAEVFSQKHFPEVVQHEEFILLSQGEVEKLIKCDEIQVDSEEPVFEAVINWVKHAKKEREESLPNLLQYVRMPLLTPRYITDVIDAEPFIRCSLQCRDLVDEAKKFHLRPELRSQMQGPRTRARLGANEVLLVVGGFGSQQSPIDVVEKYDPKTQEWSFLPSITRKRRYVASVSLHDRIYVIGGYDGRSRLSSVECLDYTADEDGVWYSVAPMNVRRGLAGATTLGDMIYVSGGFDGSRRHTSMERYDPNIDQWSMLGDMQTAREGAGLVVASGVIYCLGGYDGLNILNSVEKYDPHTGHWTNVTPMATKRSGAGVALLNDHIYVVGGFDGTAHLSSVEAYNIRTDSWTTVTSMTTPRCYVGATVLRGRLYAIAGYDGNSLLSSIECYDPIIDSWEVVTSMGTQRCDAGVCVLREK

[9] = molecular target: T9, HeLa cell extract proteins (Homo sapiens, UniProt Q9NSI6)
T9 construct: endogenous in cells; host or cells: HeLa cell extract
T9 sequence (Q9NSI6 whole entry): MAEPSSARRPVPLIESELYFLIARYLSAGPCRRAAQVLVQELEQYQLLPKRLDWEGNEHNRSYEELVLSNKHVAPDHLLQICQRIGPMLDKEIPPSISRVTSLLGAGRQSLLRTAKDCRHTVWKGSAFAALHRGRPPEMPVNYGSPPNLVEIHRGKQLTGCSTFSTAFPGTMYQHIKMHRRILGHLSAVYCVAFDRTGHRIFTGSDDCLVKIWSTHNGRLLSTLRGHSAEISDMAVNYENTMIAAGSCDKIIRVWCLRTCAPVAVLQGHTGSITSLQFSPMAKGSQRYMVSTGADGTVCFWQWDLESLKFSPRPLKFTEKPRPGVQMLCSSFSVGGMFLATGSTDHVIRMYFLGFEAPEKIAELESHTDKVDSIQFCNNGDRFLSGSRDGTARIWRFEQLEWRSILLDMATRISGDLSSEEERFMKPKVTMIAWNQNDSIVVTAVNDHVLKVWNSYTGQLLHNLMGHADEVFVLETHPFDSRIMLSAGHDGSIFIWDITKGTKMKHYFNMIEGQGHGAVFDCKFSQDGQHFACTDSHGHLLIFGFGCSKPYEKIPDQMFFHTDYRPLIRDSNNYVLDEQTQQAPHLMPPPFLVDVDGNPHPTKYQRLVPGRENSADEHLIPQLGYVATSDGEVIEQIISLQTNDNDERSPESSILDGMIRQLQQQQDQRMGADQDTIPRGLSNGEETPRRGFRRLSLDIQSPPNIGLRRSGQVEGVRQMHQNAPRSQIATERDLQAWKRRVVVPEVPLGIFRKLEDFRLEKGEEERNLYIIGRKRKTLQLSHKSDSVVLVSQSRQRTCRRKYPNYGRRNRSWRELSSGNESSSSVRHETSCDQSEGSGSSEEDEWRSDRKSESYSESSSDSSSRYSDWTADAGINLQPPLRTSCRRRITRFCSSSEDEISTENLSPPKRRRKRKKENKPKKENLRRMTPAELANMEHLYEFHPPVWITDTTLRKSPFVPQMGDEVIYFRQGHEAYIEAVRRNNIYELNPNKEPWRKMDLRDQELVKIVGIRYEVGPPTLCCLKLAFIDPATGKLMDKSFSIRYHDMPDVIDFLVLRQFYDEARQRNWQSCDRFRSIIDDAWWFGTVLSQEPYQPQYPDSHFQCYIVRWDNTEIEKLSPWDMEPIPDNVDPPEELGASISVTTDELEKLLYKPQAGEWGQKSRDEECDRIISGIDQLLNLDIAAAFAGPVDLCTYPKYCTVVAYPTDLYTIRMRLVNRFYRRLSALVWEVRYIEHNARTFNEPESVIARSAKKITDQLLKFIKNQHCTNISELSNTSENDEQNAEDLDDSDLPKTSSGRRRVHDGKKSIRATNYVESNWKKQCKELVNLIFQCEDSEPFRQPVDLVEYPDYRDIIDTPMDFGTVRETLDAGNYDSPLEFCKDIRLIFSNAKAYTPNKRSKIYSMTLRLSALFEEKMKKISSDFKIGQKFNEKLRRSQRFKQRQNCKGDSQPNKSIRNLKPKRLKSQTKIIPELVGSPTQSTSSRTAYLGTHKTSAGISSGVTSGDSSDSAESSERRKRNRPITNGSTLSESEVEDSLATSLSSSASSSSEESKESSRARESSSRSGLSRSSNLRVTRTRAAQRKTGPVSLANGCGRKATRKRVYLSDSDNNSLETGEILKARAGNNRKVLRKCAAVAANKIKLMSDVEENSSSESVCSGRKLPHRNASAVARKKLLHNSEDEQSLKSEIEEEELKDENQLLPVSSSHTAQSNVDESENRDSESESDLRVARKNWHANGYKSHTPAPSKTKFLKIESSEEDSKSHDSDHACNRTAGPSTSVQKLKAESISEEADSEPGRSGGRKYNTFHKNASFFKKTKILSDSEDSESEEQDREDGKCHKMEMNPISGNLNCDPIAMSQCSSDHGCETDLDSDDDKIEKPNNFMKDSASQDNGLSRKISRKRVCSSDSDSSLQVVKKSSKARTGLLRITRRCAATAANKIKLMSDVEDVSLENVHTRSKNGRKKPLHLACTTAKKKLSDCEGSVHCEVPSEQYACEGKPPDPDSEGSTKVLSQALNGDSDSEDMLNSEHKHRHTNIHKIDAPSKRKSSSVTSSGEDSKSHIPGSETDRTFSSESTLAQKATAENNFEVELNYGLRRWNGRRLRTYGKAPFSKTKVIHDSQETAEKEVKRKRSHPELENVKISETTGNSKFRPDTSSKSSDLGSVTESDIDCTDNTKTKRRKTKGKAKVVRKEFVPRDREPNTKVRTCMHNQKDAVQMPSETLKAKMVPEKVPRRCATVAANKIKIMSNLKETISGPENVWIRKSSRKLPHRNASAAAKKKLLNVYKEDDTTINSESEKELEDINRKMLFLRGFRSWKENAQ

[10] = HeLa, protein KLHL12 (KELCH-LIKE PROTEIN 12)

T1 sequence (A5YKK6 whole entry): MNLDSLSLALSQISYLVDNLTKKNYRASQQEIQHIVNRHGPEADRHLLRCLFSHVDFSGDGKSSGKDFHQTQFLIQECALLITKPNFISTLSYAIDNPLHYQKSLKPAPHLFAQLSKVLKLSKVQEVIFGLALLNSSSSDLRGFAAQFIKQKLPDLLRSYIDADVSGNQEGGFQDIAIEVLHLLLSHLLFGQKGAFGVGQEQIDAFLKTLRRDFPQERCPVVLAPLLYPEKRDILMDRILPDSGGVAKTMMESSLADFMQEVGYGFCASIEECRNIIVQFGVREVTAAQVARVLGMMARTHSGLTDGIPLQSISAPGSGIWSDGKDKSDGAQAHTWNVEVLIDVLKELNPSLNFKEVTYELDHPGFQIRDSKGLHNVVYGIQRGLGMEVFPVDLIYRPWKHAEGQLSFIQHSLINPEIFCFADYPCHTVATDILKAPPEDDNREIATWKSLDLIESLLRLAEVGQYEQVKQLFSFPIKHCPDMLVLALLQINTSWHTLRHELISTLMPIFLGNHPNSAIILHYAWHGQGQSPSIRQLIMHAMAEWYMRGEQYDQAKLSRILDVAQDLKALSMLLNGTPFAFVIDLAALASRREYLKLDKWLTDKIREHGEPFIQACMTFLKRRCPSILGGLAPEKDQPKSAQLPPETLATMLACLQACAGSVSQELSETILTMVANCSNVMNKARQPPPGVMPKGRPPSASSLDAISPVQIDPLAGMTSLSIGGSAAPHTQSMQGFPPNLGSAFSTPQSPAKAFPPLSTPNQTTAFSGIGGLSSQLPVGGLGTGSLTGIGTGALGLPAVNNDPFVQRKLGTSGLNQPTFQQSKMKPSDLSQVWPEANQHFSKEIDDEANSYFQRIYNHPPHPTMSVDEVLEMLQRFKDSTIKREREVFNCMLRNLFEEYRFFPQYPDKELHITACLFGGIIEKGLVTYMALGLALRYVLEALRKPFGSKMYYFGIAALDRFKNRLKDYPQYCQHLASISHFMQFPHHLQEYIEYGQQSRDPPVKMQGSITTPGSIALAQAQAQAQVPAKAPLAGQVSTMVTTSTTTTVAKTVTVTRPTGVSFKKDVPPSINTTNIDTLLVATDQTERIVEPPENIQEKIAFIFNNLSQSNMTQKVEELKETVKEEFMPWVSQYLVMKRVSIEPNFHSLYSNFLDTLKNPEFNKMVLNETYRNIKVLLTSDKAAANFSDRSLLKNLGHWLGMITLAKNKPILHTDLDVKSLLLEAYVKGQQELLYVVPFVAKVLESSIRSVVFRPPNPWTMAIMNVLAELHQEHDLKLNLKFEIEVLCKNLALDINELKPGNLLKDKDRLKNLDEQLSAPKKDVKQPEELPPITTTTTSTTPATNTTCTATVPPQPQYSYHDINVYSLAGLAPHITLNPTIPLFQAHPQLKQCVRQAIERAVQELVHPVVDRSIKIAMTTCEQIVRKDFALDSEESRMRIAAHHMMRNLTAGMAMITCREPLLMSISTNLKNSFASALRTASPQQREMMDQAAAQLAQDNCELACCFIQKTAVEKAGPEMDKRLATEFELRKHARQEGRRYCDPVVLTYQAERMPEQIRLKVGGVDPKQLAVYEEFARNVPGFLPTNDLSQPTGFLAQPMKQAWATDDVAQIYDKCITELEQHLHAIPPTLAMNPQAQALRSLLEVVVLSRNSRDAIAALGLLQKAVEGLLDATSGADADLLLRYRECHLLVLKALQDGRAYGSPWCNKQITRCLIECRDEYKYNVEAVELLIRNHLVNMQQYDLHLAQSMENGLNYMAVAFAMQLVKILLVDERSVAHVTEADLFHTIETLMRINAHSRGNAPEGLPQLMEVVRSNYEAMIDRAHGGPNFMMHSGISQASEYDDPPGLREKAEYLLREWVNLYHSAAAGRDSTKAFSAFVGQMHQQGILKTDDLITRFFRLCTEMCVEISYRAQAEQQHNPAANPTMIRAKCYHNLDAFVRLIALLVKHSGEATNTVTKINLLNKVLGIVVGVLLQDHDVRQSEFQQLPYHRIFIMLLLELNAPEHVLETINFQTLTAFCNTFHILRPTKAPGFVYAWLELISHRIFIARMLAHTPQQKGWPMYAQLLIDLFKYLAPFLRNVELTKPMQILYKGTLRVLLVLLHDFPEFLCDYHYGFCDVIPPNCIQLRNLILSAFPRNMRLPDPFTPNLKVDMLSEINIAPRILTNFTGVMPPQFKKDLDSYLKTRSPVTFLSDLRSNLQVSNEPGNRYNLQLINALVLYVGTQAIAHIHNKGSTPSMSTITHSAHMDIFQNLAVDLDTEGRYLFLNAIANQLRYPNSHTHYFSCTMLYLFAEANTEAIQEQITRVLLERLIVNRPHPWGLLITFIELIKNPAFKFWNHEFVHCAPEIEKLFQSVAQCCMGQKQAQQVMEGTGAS

Row | Compound | fold changes relative to vehicle control ([1]; HeLa, captured protein CNOT1) | fold changes relative to vehicle control ([2]; protein PSMD3, HeLa) | fold changes relative to vehicle control ([3]; HeLa, protein S100A6) | fold changes relative to vehicle control ([4]; HeLa, protein ATP2A2) | fold changes relative to vehicle control ([5]; HeLa, captured protein PSMA2) | fold changes relative to vehicle control ([6]; protein CSE1L, HeLa) | fold changes relative to vehicle control ([7]; HeLa, protein FASTKD3) | fold changes relative to vehicle control [8, 10] | fold changes relative to vehicle control ([9]; HeLa, protein BRWD1) | fold changes relative to vehicle control ([1]; protein CNOT1, HeLa) | fold changes relative to vehicle control ([3]; protein S100A6, HeLa) | fold changes relative to vehicle control ([5]; protein PSMA2, HeLa) | fold changes relative to vehicle control ([7]; captured protein FASTKD3, HeLa) | fold changes relative to vehicle control ([8]; protein KLHL12, HeLa) | fold changes relative to vehicle control ([9]; captured protein BRWD1, HeLa) | other results
1 | Nc1nc2c(c(=O)[nH]1)N(C=O)C(CNc1ccc(C(=O)N[C@@H](CCC(=O)O)C(=O)O)cc1)CN2 (stereo partly drawn) [LEU, leucovorin] | 0.93 | 1.08 | 1.3 | 1 | 0.98 | 0.94 | 1.02 | 1.36 | 0.93 |  |  |  |  |  |  | 
2 | Nc1nc2[nH]cc(CCc3ccc(C(=O)N[C@@H](CCC(=O)O)C(=O)O)cc3)c2c(=O)[nH]1 [PTX, pemetrexed] |  |  |  |  |  |  |  |  |  |  |  |  |  |  |  | fold changes relative to vehicle control [1]: 1; fold changes relative to vehicle control [2]: 1.1; fold changes relative to vehicle control [3]: 1.46; fold changes relative to vehicle control [4]: 1.03; fold changes relative to vehicle control [5]: 1.02; fold changes relative to vehicle control [6]: 0.88; fold changes relative to vehicle control [7]: 0.86; fold changes relative to vehicle control [8]: 1.07; fold changes relative to vehicle control [9]: 1.07
3 | CCCCCCOc1ccc(Cc2cnc(N)nc2N)cc1 [compound 1] |  | 1.21 |  | 1.05 |  | 1.02 |  |  |  | 1.3 | 1.13 | 1.14 | 0.93 | 1.15 | 1.01 | 
4 | CCCCCCOc1cccc(Cc2cnc(N)nc2N)c1 [compound 2] |  | 1.51 |  | 1.12 |  | 1.52 |  |  |  | 1.32 | 1.89 | 1.17 | 0.94 | 1.3 | 1.03 | 
5 | Nc1nc2cccc(-c3ccccc3)c2n1Cc1ccc(Cl)c(Cl)c1 [compound 3] |  | 1.1 |  | 0.98 |  | 1.06 |  |  |  | 1.37 | 0.95 | 0.95 | 0.95 | 0.97 | 0.9 | 
6 | NCCOCCOCC(=O)Nc1nc2ncc(CNc3ccc(C(=O)NC(CCC(=O)O)C(=O)O)cc3)nc2c(=O)[nH]1 (stereo not drawn) [compound 6] | 1.17 | 1.17 | 1.94 | 1.03 | 1.05 | 1.09 | 1.01 | 1.05 | 1.05 |  |  |  |  |  |  | 
7 | NCCCNc1ccc(C(=O)NC(CCC(=O)O)C(=O)O)cc1 (stereo not drawn) [compound 7] | 1.16 | 1.02 | 1.26 | 0.99 | 1.02 | 1.04 | 0.9 | 1.31 | 0.92 |  |  |  |  |  |  | 
